From patent US10975068B2, “6-aminopyridin-3-yl thiazoles as modulators of RORγT” (Janssen Pharmaceutica NV, priority 2016, dated 2021)

Experiments:
[1] = system: IL-17 production by CD4 T cells; experiment: Human Th17 assay; format: cell-based; details: read-out: Human Th17 Assay, IC50
From the text: The human Th17 assay tests the effect of RORγt modulatory compounds on IL-17 production by CD4 T cells under conditions which favor Th17 differentiation. Total CD4^+ T cells were isolated from the peripheral blood mononuclear cells (PBMC) of healthy donors using a CD4^+ T cell isolation kit II, following the manufacturer's instructions (Miltenyi Biotec). Cells were resuspended in a medium of RPMI-1640 supplemented with 10% fetal bovine serum, penicillin, streptomycin, glutamate, and β-mercaptoethanol and were added to 96-well plates at 1.5×10^5 per 100 μL per well. 50 μL of compound at titrated concentrations in DMSO were added into each well at final DMSO concentration at 0.2%. Cells were incubated for 1 hour, then 50 μL of Th17 cell differentiation medium was added to each well. The final concentrations of antibodies and cytokines (R&D Systems) in differentiation medium were: 3×10^6/mL anti-CD3/CD28 beads (prepared using human T cell activation/expansion kit, Miltenyi Biotec), 10 μg/mL anti-IL4, 10 μg/mL anti-IFNγ, 10 ng/mL IL1β, 10 ng/mL IL23, 50 ng/mL IL6, 3 ng/mL TGFβ and 20 U/mL IL2. Cells were cultured at 37° C. and 5% CO2 for 3 days. Supernatants were collected and the accumulated IL-17 in culture was measured by using MULTI-SPOT® Cytokine Plate following manufacture's instruction (Meso Scale Discovery). The plate was read using Sector Imager 6000, and IL-17 concentration was extrapolated from the standard curve. The IC50s were determined by GraphPad.

[2] = target: human RORγt ligand binding domain (RORγt LBD) (Homo sapiens (Human), UniProt P51449); experiment: RORγt ThermoFluor® assay (thermal shift binding); details: for Kd: read-out: ThermoFluor® Assay, Kd
Procedure, shortened: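 His-tagged human RORγt LBD (0.065 mg/mL) with 60 μM 1,8-ANS in 100 mM Hepes pH 7.0, 10 mM NaCl, 2.5 mM GSH, 0.002% Tween-20 was heated at 1 °C/min.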

full-length human RORγt [3] = target: T1, full-length human RORγt (Homo sapiens (Human), UniProt P51449); experiment: RORγt (full-length human) reporter assay, Conditions A; format: cell-based; details: for IC50: read-out: RORγt (FL) Reporter Assay A, IC50; for inhibition at 6 µM: read-out: RORγt (FL) Reporter Assay A, % inhibition @ 6 μM
From the text: RORγt (Full-Length Human) Reporter Assay:
Cells used in this assay were transiently co-transfected with three different plasmids, one expressing the GAL4-DNA binding domain (DBD)-RORγt fusion protein under control of a CMV promoter (NH2-Gal4-DBD:RORC-COOH in pCMV-BD, Stratagene #211342), and two reporter plasmids—the firefly luciferase reporter under control of a GAL4 promoter (pFR-Luc 2×GAL4) and Renilla luciferase reporter under control of CMV promoter (pRL-CMV, Promega # E2261). The full-length coding sequence was used for human RORγt, i.e., nucleotides 142-1635 of human RORγt, transcript variant 2, NCBI Accession: NM_001001523.1 (SEQ ID NO:1). HEK293T cells were plated at 35000 per well in 96-well plate in medium of MEM with 8.6% FBS. After 18-22 hours incubation, the transfection was carried out by using a PEI solution with 170.5 ng total DNA/well (50 ng pCMV-BD-ROR plus 20 ng of pFR-Luc reporter and 0.5 ng of pRL-CMV reporter plus 100 ng Carrier DNA (Clontech #630440) for each well). 4-6 hours after transfection, cells were treated with compounds for overnight in the medium with final concentration of FBS 1.1% and DMSO 0.1%. After overnight (16 to 20 hours) incubation, media were removed and cells were lysed with 20 μL 1× Passive Lysis Buffer (Promega) for 10-15 minutes. Luminescence was measured using a BMG LUMIstar OPTIMA plate reader, after addition of 75 μL/well firefly luciferase buffer, followed by 75 μL/well Renilla luciferase buffer. To calculate the effect of compounds on RORγt activity, firefly values were normalized against values of DMSO only and values of reference compound at saturating concentration, then further normalized against Renilla signals. IC50s were generated by plotting final Renilla normalized data against compound concentration and percent inhibition was calculated against DMSO control.

full-length human RORγt [4] = target: T1, full-length human RORγt; experiment: RORγt (full-length human) reporter assay, Conditions B or C; format: cell-based; details: for IC50: read-out: RORγt (FL) Reporter Assay B or C, IC50
Procedure, shortened: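 HEK293T cells transiently co-transfected with GAL4-DBD–full-length human RORγt (nt 142-1635, NM_001001523.1) plus GAL4-firefly and CMV-Renilla luciferase reporters; compounds added 4-6 h post-transfection for 16-20 h in 1.3% FBS, 0.1% DMSO. Firefly signal normalized to DMSO and saturating reference compound, then to Renilla; IC50 from concentration plots.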

mice = details: cited from earlier work
obese diabetic mice = details: cited from earlier work

T1 sequence (P51449 other isoform, or with tags, fused parts or gaps): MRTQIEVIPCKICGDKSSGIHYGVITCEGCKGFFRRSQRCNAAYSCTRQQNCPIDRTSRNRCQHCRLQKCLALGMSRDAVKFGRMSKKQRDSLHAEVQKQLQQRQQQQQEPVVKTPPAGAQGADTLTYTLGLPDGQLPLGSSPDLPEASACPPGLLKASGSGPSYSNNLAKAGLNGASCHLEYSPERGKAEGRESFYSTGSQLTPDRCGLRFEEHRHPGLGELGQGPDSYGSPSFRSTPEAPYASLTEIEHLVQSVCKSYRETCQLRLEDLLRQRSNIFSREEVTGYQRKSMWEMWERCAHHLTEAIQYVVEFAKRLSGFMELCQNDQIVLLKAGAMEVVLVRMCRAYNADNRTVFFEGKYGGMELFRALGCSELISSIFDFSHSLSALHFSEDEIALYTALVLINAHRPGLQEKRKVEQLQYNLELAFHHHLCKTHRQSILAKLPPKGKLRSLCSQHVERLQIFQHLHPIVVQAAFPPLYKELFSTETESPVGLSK
Sequence of human RORγt ligand binding domain (RORγt LBD) (P51449 other isoform, or with tags, fused parts or gaps): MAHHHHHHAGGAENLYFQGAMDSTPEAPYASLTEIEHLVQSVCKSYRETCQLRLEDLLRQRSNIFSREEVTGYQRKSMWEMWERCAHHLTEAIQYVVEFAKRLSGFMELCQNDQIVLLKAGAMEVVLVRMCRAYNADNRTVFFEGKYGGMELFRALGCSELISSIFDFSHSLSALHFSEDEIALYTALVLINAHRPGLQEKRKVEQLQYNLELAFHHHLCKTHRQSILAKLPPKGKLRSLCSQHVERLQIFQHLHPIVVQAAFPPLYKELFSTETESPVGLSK

Structure (SMILES)	IC50 [1] [nM]	Kd [2] [nM]	IC50 (full-length human RORγt [3]; Conditions A) [nM]	inhibition at 6 µM (full-length human RORγt [3]; Conditions A) [%]	also measured
CC(=O)Nc1nc(C)c(S(=O)(=O)Nc2ccc(C(O)(C(F)(F)F)C(F)(F)F)cc2)s1 [SR1001]					Th17-dependent learned helplessness (mice): reduced Th17-dependent learned helplessness
CC(C)Nc1cc(C(F)(F)F)c(-c2sc(C(=O)NCC(C)(C)O)nc2C(=O)N2CCC(F)CC2)cn1 [Example 12, 4-(4-Fluoropiperidine-1-carbonyl)-N-(2-hydroxy-2-methylpropyl)-5-(6-(isopropylamino)-4-(trifluoromethyl)pyridin-3-yl)thiazole-2-carboxamide]	190	63		92	fold improvement in RORγt Thermofluor® binding assay activity ([2]; compared to Comparator Example 3): over 800 fold; IC50 (full-length human RORγt [3]; HEK293T cells): 850 nM
C[C@H]1CCCN1C(=O)c1nc(C(=O)NCC(C)(C)O)sc1-c1cnc(NC2CCCCC2)cc1C(F)(F)F [Example 19, (S)-5-(6-(Cyclohexylamino)-4-(trifluoromethyl)pyridin-3-yl)-N-(2-hydroxy-2-methylpropyl)-4-(2-methylpyrrolidine-1-carbonyl)thiazole-2-carboxamide]	40	4.4	32	99	
CC(=O)N1CCN(Cc2ccc(-c3ccc(C(O)(C(F)(F)F)C(F)(F)F)cc3)cc2)CC1 [SR1555]					body weight (obese diabetic mice): reduced; fat mass (obese diabetic mice): significant reduction; food intake (obese diabetic mice): modest reduction; insulin sensitivity (obese diabetic mice): improved
CC(C)(O)CNC(=O)c1nc(C(=O)N2CCC(F)CC2)c(-c2cnc(NC3CCCCC3)cc2C2CC2)s1 [Example 64, 5-(6-(Cyclohexylamino)-4-cyclopropylpyridin-3-yl)-4-(4-fluoropiperidine-1-carbonyl)-N-(2-hydroxy-2-methylpropyl)thiazole-2-carboxamide]	220	17	63	96	

More lines, in order of falling IC50 [1], values ahead:

IC50 [1] [nM]	Kd [2] [nM]	IC50 (full-length human RORγt [3]; Conditions A) [nM]	inhibition at 6 µM (full-length human RORγt [3]; Conditions A) [%]	Structure (SMILES)	also measured
40	9.6	35		CC(C)(O)CNC(=O)c1nc(C(=O)N2CCC(F)CC2)c(-c2cnc(NC3CCCCC3)cc2C(F)(F)F)s1 [Example 3, 5-(6-(Cyclohexylamino)-4-(trifluoromethyl)pyridin-3-yl)-4-(4-fluoropiperidine-1-carbonyl)-N-(2-hydroxy-2-methylpropyl)thiazole-2-carboxamide]	RORγt (FL) Reporter Assay A, % inhibition (value marked **) (full-length human RORγt [3]; Conditions A, marked **: footnote not shown): 106** %
20				C[C@H]1CCCCN1C(=O)c1nc(C(=O)NCC(C)(C)O)sc1-c1cnc(NC2CCCCC2)cc1C1CC1 [Example 76, (S)-5-(6-(Cyclohexylamino)-4-cyclopropylpyridin-3-yl)-N-(2-hydroxy-2-methylpropyl)-4-(2-methylpiperidine-1-carbonyl)thiazole-2-carboxamide]	IC50 (full-length human RORγt [4]; Conditions B or C): 3.8 nM; inhibition at 6 µM (full-length human RORγt [4]; read-out: RORγt (FL) Reporter Assay B or C, % inhibition @ 6 μM, Conditions B or C, @ 6 μM): 108%
19				CC[C@H](Nc1cc(C(F)F)c(-c2sc(C(=O)NCC(C)(C)O)nc2C(=O)N2CCCC[C@@H]2C)cn1)C(F)(F)F [Example 91, 5-(4-(Difluoromethyl)-6-(((S)-1,1,1-trifluorobutan-2-yl)amino)pyridin-3-yl)-N-(2-hydroxy-2-methylpropyl)-4-((S)-2-methylpiperidine-1-carbonyl)thiazole-2-carboxamide]	RORγt (FL) Reporter Assay B or C, % inhibition (value marked *) (full-length human RORγt [4]; Conditions B or C, marked *: footnote not given): 96* %
14				C[C@H]1CCCCN1C(=O)c1nc(C(=O)NC2CCS(=O)(=O)CC2)sc1-c1cnc(NC2CCCCC2)cc1C1CC1 [Example 75, (S)-5-(6-(Cyclohexylamino)-4-cyclopropylpyridin-3-yl)-N-(1,1-dioxidotetrahydro-2H-thiopyran-4-yl)-4-(2-methylpiperidine-1-carbonyl)thiazole-2-carboxamide]	RORγt (FL) Reporter Assay B or C, % inhibition (value marked **) (full-length human RORγt [4]; Conditions B or C, marked **: footnote not shown): 108** %; IC50 (full-length human RORγt [4]; Conditions B or C): 7 nM
